Values quoted from earlier work in patent US20240216401A1, “COMBINATION THERAPY BY USING AKR1C3-ACTIVATED COMPOUND WITH IMMUNE CHECKPOINT INHIBITOR” (OBI Pharma, Inc., priority 2021, published 2024).

System: tumor
Conditions: in vitro and in vivo; references 6, 21; cited from earlier work

Structure (SMILES): CS(=O)(=O)OCCN(CCBr)c1c(C(=O)NCCOP(=O)(O)O)cc([N+](=O)[O-])cc1[N+](=O)[O-] [PR104]
- anti-tumor activity (in words): good anti-tumor activity
